Measurements reported in US20190365784A1, “USE OF BRASSINOSTEROID ANALOGS FOR THE TREATMENT OF DERMAL DISORDERS BY SELECTIVELY MODULATING LIVER X RECEPTORS (LXR) AND DERMAL DISEASE TREATMENT BY BRASSINOSTEROID ANALOGS ACTING AS SELECTIVE LIVER X RECEPTOR (LXR) MODULATORS” (CONSEJO NACIONAL DE INVESTIGACIONES CIENTÍFICAS Y TÉCNICAS …, priority 2015, published 2019).
“And” between values parts separate entries of the source, which are not always exact repeats. Equal values may be shown once.

Key:
LXR-alpha = molecular target: T1, LXR-alpha (Homo sapiens, UniProt Q13133); test: LXR-alpha/RXR LRE-luciferase reporter in transfected HEK293T cells; type: cell-based; details: 10 uM, 18 h
T1 sequence (Q13133 1-447): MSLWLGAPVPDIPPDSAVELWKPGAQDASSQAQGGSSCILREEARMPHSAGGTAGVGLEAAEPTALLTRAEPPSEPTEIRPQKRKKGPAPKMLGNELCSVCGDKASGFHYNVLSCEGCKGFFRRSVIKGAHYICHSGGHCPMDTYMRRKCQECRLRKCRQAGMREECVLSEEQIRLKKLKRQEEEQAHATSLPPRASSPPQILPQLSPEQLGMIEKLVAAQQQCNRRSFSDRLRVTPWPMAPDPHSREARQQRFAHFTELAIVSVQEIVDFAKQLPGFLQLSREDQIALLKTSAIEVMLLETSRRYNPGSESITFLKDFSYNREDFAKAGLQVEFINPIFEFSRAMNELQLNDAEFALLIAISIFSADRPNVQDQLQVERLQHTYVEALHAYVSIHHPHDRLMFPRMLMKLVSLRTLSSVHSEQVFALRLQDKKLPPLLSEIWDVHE
T1 sequence (P19793 1-462 partner): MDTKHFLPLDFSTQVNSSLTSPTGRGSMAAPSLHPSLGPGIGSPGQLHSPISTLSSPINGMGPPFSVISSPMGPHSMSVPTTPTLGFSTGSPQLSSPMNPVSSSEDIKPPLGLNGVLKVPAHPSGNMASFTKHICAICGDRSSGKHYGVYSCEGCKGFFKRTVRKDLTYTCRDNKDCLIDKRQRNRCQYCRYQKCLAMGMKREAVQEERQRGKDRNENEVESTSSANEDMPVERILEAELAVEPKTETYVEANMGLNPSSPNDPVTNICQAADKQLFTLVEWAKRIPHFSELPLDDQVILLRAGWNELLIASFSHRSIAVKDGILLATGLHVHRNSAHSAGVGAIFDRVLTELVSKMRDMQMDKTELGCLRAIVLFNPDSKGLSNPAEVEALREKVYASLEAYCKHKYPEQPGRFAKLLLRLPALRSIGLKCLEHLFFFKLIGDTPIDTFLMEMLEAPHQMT
From the text: Since we had previously shown that the beneficial effects of the compounds of the invention are independent of glucocorticoid receptor (GR) activation, we set forth to investigate if they might exert their actions through activation of liver X receptors (LXR). For this purpose we used cultured cells transiently transfected with LXR-alpha, the retinoid X receptor (RXR) and a LXR response element-luciferase reporter (LRE-LUC). A. Human embryonic kidney cells (HEK293T; 5×10^5 cells/well) were cultured in DMEM medium supplemented with 10% (v/v) fetal bovine serum, 100 ug/ml of streptomycin, 100 IU/ml of penicillin and 2 mM glutamine. For the transient transfections, the cell cultures were added with plasmids carrying LXR-alpha (pLXR-alpha; 0.6 ug), the retinoid X receptor (pRXR; 0.2 ug), a LXR response element-luciferase reporter (pRE-LUC; 0.7 ug) and beta-galactosidase gene (pRSV-LacZ; 0.6 ug) as a transfection control, using Lipofectamine 2000 (Invitrogen). […] Compounds III to VI are […] analogs bearing a fluorine atom at C-6. To assess LXR-alpha activation, at the end of the incubation period luciferase activity was measured by use of a luciferase assay system (Promega). The results of three independent assays, carried out in duplicate for each condition, are reported.

[1] = Plasma total cholesterol, HDL-cholesterol and triglyceride in C57BI mice after 5 days i.p. treatment; type: in vivo; details: male C57BI mice; T0901317 5 mg/kg i.p. daily for 5 days
Procedure: (§1) Administration of synthetic LXR agonists such as T0901317 induces a marked increment of liver lipogenesis that leads to hepatic steatosis and plasma hypertriglyceridemia.
(§2) Male C57BI mice received daily for 5 days intraperitoneal injections containing either 10 mg Compound I/kg, or 5 mg T0901317/kg, or vehicle [90% (v/v) DMSO in apyrogenic sterile water]. On the sixth day of the assay, the animals were fasted for 4 h before decapitation. Blood plasma was obtained for the determination of total cholesterol, HDL-cholesterol and triglyceride contents. The livers were resected, and their weights and colors used as gross markers of increased liver triglyceride contents.

[2] = Liver weight and gross morphology (hepatic steatosis) in C57BI mice after 5 days i.p. treatment; type: in vivo; details: male C57BI mice, T0901317 5 mg/kg i.p. daily for 5 days
Procedure: as §1, §2

HDL-cholesterol plasmatic content higher than in Compound I- or Vehicle-treated mice [1] | total cholesterol plasmatic content higher than in Compound I- or Vehicle-treated mice [1] | triglyceride plasmatic content higher than in Compound I- or Vehicle-treated mice [1] | liver color versus DMSO-treated mice [2] | liver steatosis (liver weight and color) [2] | liver weight higher than in DMSO-treated mice ([2]; 5 mg/kg) | SMILES | induction of LXR-alpha driven gene expression compared with GW3965 (1 uM) (LXR-alpha)
– | – | – | – | – | – | CC[C@@H](C(C)C)[C@H](O)[C@@H](O)[C@@H](C)[C@H]1CC[C@H]2[C@@H]3C[C@@H](F)C4=CC(=O)C=C[C@]4(C)[C@H]3CC[C@]12C [Compound VI, (22S,23S)-6β-fluoro-22,23-dihydroxystigmasta-1,4-dien-3-one] | within the same range as that observed for GW3965
50% | 50% | > 2 times | paler | induces liver steatosis | 27% and ~23% | O=S(=O)(c1ccccc1)N(CC(F)(F)F)c1ccc(C(O)(C(F)(F)F)C(F)(F)F)cc1 [Compound T0901317] | –
– | – | – | – | – | – | CC[C@@H](C(C)C)[C@H](O)[C@@H](O)[C@@H](C)[C@H]1CC[C@H]2[C@@H]3C[C@@H](F)C4=CC(=O)CC[C@]4(C)[C@H]3CC[C@]12C [Compound IV, (22S,23S)-6β-fluoro-22,23-dihydroxystigmast-4-en-3-one] | within the same range as that observed for GW3965
